Patent US4648996A, “Phenyl substituted-2,4,6,8-nonatetraenoic acid” (Hoffmann-La Roche Inc., priority 1985, dated 1987)

Experiments:
[1] = tested on: MBSA delayed hypersensitivity in mice; assay: Delayed hypersensitivity to methylated bovine serum albumin (MBSA); type: in vivo, Male and female MFI mice substrain E33; conditions: for % increase paw volume / % reduction (cf. arachis oil control): 10 doses
Procedure: Male and female MFI mice substrain E33. Initial weight approximately 25 gm.
Dosing with vehicle and retinoid commenced on day 0 and finished on day 9.
Each group consisted of 4 male and 6 female mice (separately caged). Drugs were dosed orally at a dose volume of 10 ml.kg^-1 (10 doses).

[2] = tested on: type II collagen arthritis in rats; assay: Established type II collagen arthritis; type: in vivo, Male and female Alderley Park Strain 1 rats; conditions: for Paw Vol / wt / GAG (urine glycosaminoglycans): 100 mg.kg^-1 p.o.
Procedure: Male and female Alderley Park Strain 1 rats.
Type 2 collagen (prepared from bovine nasal septum cartilage), Freunds incomplete adjuvant (Difco).
Rats were sensitized to type 2 collagen by injecting them intradermally with 1 ml. of a water in oil emulsion consisting of equal parts of a 1 mg.ml^-1 solution of type 2 collagen in 0.45M NaCl, 0.02M Tris, pH 7.4 and Freunds incomplete adjuvant. Rats developing arthritis were allocated on day 15 post sensitization to a control arachis oil treated group (6 male, 4 female) or to the Compound A treated group (6 male, 5 female). Hind paw volume measurements were taken to ensure even distribution of rats between groups. An overnight collection of urine was made on days 15/16 and dosing commenced on day 16. These urine samples were analyzed for glycosaminoglycans (GAG). Compound A was dosed at 100 mg.kg^-1 p.o. On days 19/20 a second overnight collection of urine was made. These urine samples were analyzed for glycosaminoglycans (GAG). On day 20 a second hind paw measurement was taken. Rats were then anaesthetised with sodium pentobarbitone, bled, killed and X-rays taken of hind and forepaws. Rats were dosed on days 16-19 inclusive (4 doses).

[3] = tested on: established adjuvant arthritis in rats; assay: Effect on the course of established adjuvant arthritis; type: in vivo, Male Lewis rats from Charles River; conditions: 100 mg/kg, 7 days
Procedure: Male Lewis rats from Charles River were used for these experiments.
Heat-killed, dessicated Mycobacteriam butyricum.
Adjuvant arthritis was induced by the injection of 0.1 ml of adjuvant [a suspension of heat-killed, dessicated Mycobacterium butyricum, 0.5% CW/V) in heavy mineral oil containing 0.2% digitonin] into the base of the tail. The arthritis was allowed to develop for 21 days and then the volume of both hind paws were measured using a mercury plethysmograph. The rats were divided into groups of 8 with equal mean paw volumes and then the rats were treated with Compound A, indomethacin (as a control drug), or vehicle for 7 days at the end of the treatment period, the volumes of both hind paws were again measured to assess antiinflammatory effects. Body weight changes were also followed and, at the end of the experiment, plasma was collected for determination of plasma fibrinogen (Exner et. al., Amer. J. Clin. Path, 71: 521-527).
^b Drugs were administered once a day for 7 days by intubation
^c Change in paw volume/body weight equals paw volume body weight on […]

## CCCCCCCCCOc1ccccc1/C=C/C(C)=C/C=C/C(C)=C/C(=O)O [Compound A, All(E)-9-[2(nonyloxy)phenyl]-3,7-dimethyl-2,4,6,8-nonatetraenoic acid]
[1]; 10 mg.kg^-1 oral
  % increase paw volume: 102 ± 12%
  % reduction (cf. arachis oil control): 6%
[1]; 10 mg.kg^-1 oral, female (F)
  Mean body weight change: -0.2 g
[1]; 10 mg.kg^-1 oral, male (M)
  Mean body weight change: 3.3 g
[1]; 30 mg.kg^-1 oral
  % increase paw volume: 50 ± 7%
  % reduction (cf. arachis oil control): 54%
[1]; 30 mg.kg^-1 oral, female (F)
  Mean body weight change: 0.5 g
[1]; 30 mg.kg^-1 oral, male (M)
  Mean body weight change: 2.8 g
[1]; 100 mg.kg^-1 oral
  % increase paw volume: 40 ± 5%
  % reduction (cf. arachis oil control): 63%
[1]; 100 mg.kg^-1 oral, female (F)
  Mean body weight change: -0.2 g
[1]; 100 mg.kg^-1 oral, male (M)
  Mean body weight change: 3.3 g
[2]; day 16 (start of dosing)
  Paw Vol: 2.44 ± 0.08
  wt: 247 ± 14 g
[2]; day 16 (urine days 15/16)
  GAG (urine glycosaminoglycans): 1586 ± 307 µg
[2]; day 20 (urine days 19/20)
  GAG (urine glycosaminoglycans): 634 ± 72 µg
[2]; day 20, after 4 doses
  Paw Vol: 2.66 ± 0.06
  wt: 229 ± 10 g
[2]; male and female rats, 100 mg.kg^-1
  weight during treatment (in words): lost weight
[3]
  Plasma Fibrinogen: 874 ± 57 mg/dL
[3]; day 28 minus day 22
  Change in Body Weight: 5.2 ± 2.1 g
[3]; day 28 minus day 22, both hind paws
  Change in Paw Volume: -0.96 ± 0.10 mL
